Measured values as given in patent US5096929A, “2-amino-1,2,3,4-tetrahydronaphthalene derivatives with cardiovascular activity, process for their preparation and pharmaceutical compositions containing them” (Chiesi Farmaceutici S.p.A., priority 1989, dated 1992).
Structures can show the parent of a compound that is named as a salt.

System: anesthetized dog
Assay: Anesthetized dog: cardiovascular activity
Type: in vivo, Beagle dog
Settings: for Hypotensive action / Increase of the cardiac output / Increase of the stroke volume / Reduction of the systemic arterial resistances: i.v. bolus
Protocol: The interesting hemodynamic properties of CHF 1255 were confirmed in vivo in the anesthetized dog.
Anesthesized dog: cardiovascular activity
Beagle dogs were anesthetized with sodium pentobarbital (30 mg/kg iv) thoracotomized and monitored by recording cardiocirculatory parameters.
CHF 1255 and the reference drugs (amrinone and xamoterol) were administered i.v. in a bolus.
CHF 1255 at the doses of 0.3-1.3 μmoles/kg i.v. confirmed its activity in changing hemodynamic parameters.

[1] = 1st of three doses (0.3-1.3 μmoles/kg)
[2] = 2nd of three doses (0.3-1.3 μmoles/kg)
[3] = 3rd of three doses (0.3-1.3 μmoles/kg)

SMILES: COc1ccc2c(c1OC)CCC(N[C@@H](C)[C@H](O)c1ccc(O)cc1)C2 (relative stereo) [CHF 1255, Erythro-5,6-Dimethoxy-2-[2-(4-hydroxyphenyl)-2-hydroxy-1-mehylethylamino]1,2,3,4-tetrahydronaphthalene hydrochloride]
- Hemodynamic effects (in words) (anesthetized dog, i.v.): more relevant than those of amrinone
- Duration of activity (dog, in vivo): long-lasting
- Hypotensive action [1]: -17%
- Increase of the cardiac output [1]: 17%
- Increase of the stroke volume [1]: 10
- Reduction of the systemic arterial resistances [1]: -28%
- Hypotensive action [2]: -22%
- Increase of the cardiac output [2]: 28%
- Increase of the stroke volume [2]: 16
- Reduction of the systemic arterial resistances [2]: -37%
- Hypotensive action [3]: -31%
- Increase of the cardiac output [3]: 34%
- Increase of the stroke volume [3]: 21
- Reduction of the systemic arterial resistances [3]: -45%
- Inotropic effect, dF/dT index (in words) (peak of first derivative of aortic flow): remarkable inotropic effect increasing the dF/dT index
